Laboratory results published in ChEMBL document CHEMBL3885881, “DrugMatrix”.

Species on record: Rattus norvegicus
Assay: DrugMatrix - Regimen: Daily Repeat
Format: toxicity, organism-based, Sprague-Dawley
Set-up: regimen Daily Repeat, gender Male, age 6-8 weeks
Settings: in vivo, sc, route subcutaneous, […]; for ABSOLUTE BASOPHIL / ABSOLUTE EOSINOPHIL / ABSOLUTE LYMPHOCYTE / ABSOLUTE MONOCYTE / ABSOLUTE SEGMENTED NEUTROPHIL / BASOPHIL / EOSINOPHIL / ERYTHROCYTE COUNT / HEMATOCRIT / HEMOGLOBIN / LEUKOCYTE COUNT / LYMPHOCYTE / MEAN CORPUSCULAR HEMOGLOBIN / MEAN CORPUSCULAR HEMOGLOBIN CONCENTRATION / MEAN CORPUSCULAR VOLUME / MONOCYTE / NEUTROPHIL / NUCLEATED RED BLOOD CELLS / PLATELET COUNT: tissue Blood; for ALANINE AMINOTRANSFERASE / ALBUMIN / ALKALINE PHOSPHATASE / ASPARTATE AMINOTRANSFERASE / BLOOD UREA NITROGEN / CARBON DIOXIDE / CHLORIDE / CHOLESTEROL / CREATINE PHOSPHOKINASE / CREATININE / GLUCOSE / LACTATE DEHYDROGENASE / LIPASE / PHOSPHORUS / POTASSIUM / SODIUM / TOTAL BILIRUBIN / TOTAL PROTEIN / URIC ACID: tissue Plasma
[1] = 0 mg/kg, 72 h, dose level Control, time 3 day
[2] = 0 mg/kg, 120 h, dose level Control, time 5 day
[3] = 56 mg/kg, 72 h, dose level High, time 3 day

C[C@]12CCC(=O)C=C1CC[C@@H]1[C@@H]2[C@@H](O)C[C@@]2(C)[C@H]1CC[C@]2(O)C(=O)CO [HYDROCORTISONE]
ABSOLUTE BASOPHIL [1]: 0 CELLS/uL
ABSOLUTE EOSINOPHIL [1]: 0 CELLS/uL
ABSOLUTE LYMPHOCYTE [1]: 10887 CELLS/uL
ABSOLUTE MONOCYTE [1]: 56 CELLS/uL
ABSOLUTE SEGMENTED NEUTROPHIL [1]: 1057 CELLS/uL
BASOPHIL [1]: 0%
EOSINOPHIL [1]: 0%
ERYTHROCYTE COUNT [1]: 5.31 x10E6/uL
HEMATOCRIT [1]: 33.78%
HEMOGLOBIN [1]: 13.4 G/DL
LEUKOCYTE COUNT [1]: 12 x10E3/uL
LYMPHOCYTE [1]: 91.17%
MEAN CORPUSCULAR HEMOGLOBIN [1]: 25.25 pg
MEAN CORPUSCULAR HEMOGLOBIN CONCENTRATION [1]: 39.65 G/DL
MEAN CORPUSCULAR VOLUME [1]: 63.65 fL
MONOCYTE [1]: 0.5%
NEUTROPHIL [1]: 8.33%
NUCLEATED RED BLOOD CELLS [1]: 0 /100WBC
PLATELET COUNT [1]: 1142 x10E3/uL
ALANINE AMINOTRANSFERASE [1]: 57.17 u/L
ALBUMIN [1]: 4.28 G/DL
ALKALINE PHOSPHATASE [1]: 425.83 u/L
ASPARTATE AMINOTRANSFERASE [1]: 93.83 u/L
BLOOD UREA NITROGEN [1]: 14.17 mg/dL
CARBON DIOXIDE [1]: 33.5 mmol/L
CHLORIDE [1]: 100 MEQ/L
CHOLESTEROL [1]: 70.33 mg/dL
CREATINE PHOSPHOKINASE [1]: 438.67 u/L
CREATININE [1]: 0.19 mg/dL
GLUCOSE [1]: 138.5 mg/dL
LACTATE DEHYDROGENASE [1]: 190.17 u/L
LIPASE [1]: 9.83 u/L
PHOSPHORUS [1]: 11.05 mg/dL
POTASSIUM [1]: 6.59 MEQ/L
SODIUM [1]: 143.58 MEQ/L
TOTAL BILIRUBIN [1]: 0.22 mg/dL
TOTAL PROTEIN [1]: 6.15 G/DL
URIC ACID [1]: 1.3 mg/dL
ABSOLUTE BASOPHIL [2]: 0 CELLS/uL
ABSOLUTE EOSINOPHIL [2]: 91.17 CELLS/uL
ABSOLUTE LYMPHOCYTE [2]: 11847.67 CELLS/uL
ABSOLUTE MONOCYTE [2]: 172.83 CELLS/uL
ABSOLUTE SEGMENTED NEUTROPHIL [2]: 1105 CELLS/uL
BASOPHIL [2]: 0%
EOSINOPHIL [2]: 0.67%
ERYTHROCYTE COUNT [2]: 5.35 x10E6/uL
HEMATOCRIT [2]: 33.65%
HEMOGLOBIN [2]: 13.42 G/DL
LEUKOCYTE COUNT [2]: 13.22 x10E3/uL
LYMPHOCYTE [2]: 89.83%
MEAN CORPUSCULAR HEMOGLOBIN [2]: 25.12 pg
MEAN CORPUSCULAR HEMOGLOBIN CONCENTRATION [2]: 39.9 G/DL
MEAN CORPUSCULAR VOLUME [2]: 63 fL
MONOCYTE [2]: 1.33%
NEUTROPHIL [2]: 8.17%
NUCLEATED RED BLOOD CELLS [2]: 0 /100WBC
PLATELET COUNT [2]: 1347.83 x10E3/uL
ALANINE AMINOTRANSFERASE [2]: 50 u/L
ALBUMIN [2]: 4.1 G/DL
ALKALINE PHOSPHATASE [2]: 329.17 u/L
ASPARTATE AMINOTRANSFERASE [2]: 77.17 u/L
BLOOD UREA NITROGEN [2]: 16.83 mg/dL
CARBON DIOXIDE [2]: 34.83 mmol/L
CHLORIDE [2]: 99.83 MEQ/L
CHOLESTEROL [2]: 75.67 mg/dL
CREATINE PHOSPHOKINASE [2]: 295.83 u/L
CREATININE [2]: 0.18 mg/dL
GLUCOSE [2]: 156.33 mg/dL
LACTATE DEHYDROGENASE [2]: 166.83 u/L
LIPASE [2]: 9.83 u/L
PHOSPHORUS [2]: 12.18 mg/dL
POTASSIUM [2]: 6.69 MEQ/L
SODIUM [2]: 143.97 MEQ/L
TOTAL BILIRUBIN [2]: 0.22 mg/dL
TOTAL PROTEIN [2]: 6.05 G/DL
URIC ACID [2]: 1.6 mg/dL
ABSOLUTE BASOPHIL [3]: 0 CELLS/uL
ABSOLUTE EOSINOPHIL [3]: 0 CELLS/uL
ABSOLUTE LYMPHOCYTE [3]: 1706 CELLS/uL
ABSOLUTE MONOCYTE [3]: 103.33 CELLS/uL
ABSOLUTE SEGMENTED NEUTROPHIL [3]: 3357.33 CELLS/uL
BASOPHIL [3]: 0%
EOSINOPHIL [3]: 0%
ERYTHROCYTE COUNT [3]: 5.79 x10E6/uL
HEMATOCRIT [3]: 37.97%
HEMOGLOBIN [3]: 14.73 G/DL
LEUKOCYTE COUNT [3]: 5.17 x10E3/uL
LYMPHOCYTE [3]: 33.33%
MEAN CORPUSCULAR HEMOGLOBIN [3]: 25.47 pg
MEAN CORPUSCULAR HEMOGLOBIN CONCENTRATION [3]: 38.87 G/DL
MEAN CORPUSCULAR VOLUME [3]: 65.57 fL
MONOCYTE [3]: 2%
NEUTROPHIL [3]: 64.67%
NUCLEATED RED BLOOD CELLS [3]: 0.33 /100WBC
PLATELET COUNT [3]: 1157.67 x10E3/uL
ALANINE AMINOTRANSFERASE [3]: 124.33 u/L
ALBUMIN [3]: 5.07 G/DL
ALKALINE PHOSPHATASE [3]: 509.67 u/L
ASPARTATE AMINOTRANSFERASE [3]: 177.33 u/L
BLOOD UREA NITROGEN [3]: 13.67 mg/dL
CARBON DIOXIDE [3]: 29 mmol/L
CHLORIDE [3]: 99 MEQ/L
CHOLESTEROL [3]: 119.33 mg/dL
CREATINE PHOSPHOKINASE [3]: 250.33 u/L
CREATININE [3]: 0.17 mg/dL
GLUCOSE [3]: 360 mg/dL
LACTATE DEHYDROGENASE [3]: 443.67 u/L
LIPASE [3]: 10.67 u/L
PHOSPHORUS [3]: 10.63 mg/dL
POTASSIUM [3]: 5.68 MEQ/L
SODIUM [3]: 144.93 MEQ/L
TOTAL BILIRUBIN [3]: 0.17 mg/dL
TOTAL PROTEIN [3]: 6.97 G/DL
URIC ACID [3]: 1.43 mg/dL
